The conditions of the series: copper sulfate concentration up to 70% (weight percent) in the composition, applied to horse hoofs.

As for `O=S(=O)([O-])[O-].[Cu+2]` [copper sulfate], the “harmfulness in this usage (topical hoof thrush treatment)” value is “not be harmful”.

The values are drawn from patent publication US20150164946A1, “Thrush Treatment Paste” (priority 2013, published 2015).
